Each block holds one compound with its values, some of them ahead of it.
Key:
[1] = tested on: MYC and GAPDH expression in MV4; 11 and MOLM-13 cells; assay: Quantitative RT-PCR analysis of MYC and GAPDH expression; assay type: cell-based; details: 8 hours of treatment, both cell lines
[2] = Metabolic stability assay in human liver microsomes; assay type: in vitro ADME; details: human, microsomes
[3] = molecular target: BRD2-BD1 (Homo sapiens (Human), UniProt P25440); assay: BromoKdELECT assay; assay type: binding
BRD2-BD1, sequence (P25440 74-180): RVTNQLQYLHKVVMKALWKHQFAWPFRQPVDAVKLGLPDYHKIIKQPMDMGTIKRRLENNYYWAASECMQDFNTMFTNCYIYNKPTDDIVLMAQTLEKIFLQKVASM

[4] = molecular target: T1, BRDT-BD1 (Homo sapiens (Human), UniProt Q58F21); assay: BromoKdELECT assay; assay type: binding
[5] = molecular target: BRD3-BD1 (Homo sapiens (Human), UniProt Q15059); assay: BromoKdELECT assay; assay type: binding
BRD3-BD1, sequence (Q15059 34-140): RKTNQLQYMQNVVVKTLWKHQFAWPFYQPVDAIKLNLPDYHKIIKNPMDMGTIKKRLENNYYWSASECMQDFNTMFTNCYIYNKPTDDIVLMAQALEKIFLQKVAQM

[6] = molecular target: T2, BRD4-BD1 (Homo sapiens (Human), UniProt O60885); assay: BromoKdELECT assay; assay type: binding
[7] = tested on: MV4; 11 and MOLM-13 cells; assay: Apoptosis detection (Annexin V) by flow cytometry; assay type: cell-based; details: 72 hours of treatment
[8] = tested on: MV4; 11 and MOLM-13 cells; assay: Cell cycle analysis by flow cytometry; assay type: cell-based; details: 24 hours of treatment at the IC50
[9] = tested on: NanoLuc-BET BD1; assay: NanoBRET target engagement intracellular BET bromodomain assay in HEK293 cells; assay type: cell-based, human; details: transiently transfected HEK293 cells
[10] = molecular target: T1, BRDT-BD1; assay: AlphaScreen bromodomain proximity assay (biotinylated JQ1 competition); assay type: binding; details: for BRDT-BD1 vs. BRDT-BD2 fold: BD1 selectivity, AlphaScreen IC50 ratio
[11] = molecular target: NanoLuc-BRDT-BD2 (Homo sapiens (Human), UniProt Q58F21); assay: NanoBRET target engagement intracellular BET bromodomain assay in HEK293 cells; assay type: cell-based; details: transiently transfected HEK293 cells
[12] = molecular target: NanoLuc-BRD4-BD2 (Homo sapiens (Human), UniProt O60885); assay: as above; assay type: cell-based; details: transiently transfected HEK293 cells
[13] = Metabolic stability assay in mouse liver microsomes; assay type: in vitro ADME; details: mouse, microsomes
[14] = tested on: AML cell line MV4; 11; assay: Cell viability testing (CellTiterGlo, 72 hours); assay type: cell-based; details: Homo sapiens, '—' = not efficient
[15] = molecular target: BRD4-BD2 (Homo sapiens (Human), UniProt O60885); assay: AlphaScreen bromodomain proximity assay (biotinylated JQ1 competition); assay type: binding; details: in Table 4 '—' = not efficient
[16] = molecular target: T2, BRD4-BD1; assay: as above; assay type: binding
[17] = molecular target: BRDT-BD2 (Homo sapiens (Human), UniProt Q58F21); assay: as above; assay type: binding; details: in Table 4 '—' = not efficient

half-life at 2 μM [2]: 33 min
BRD2-BD1 selectivity over BRD2-BD2 ([3]; BromoKdELECT): 420 fold
IC50 ([3]; printed as BRD2-BDT1): 0.26 nM
IC50 [4]: 0.22 nM
IC50 [5]: 0.13 nM
BRD3-BD1 selectivity over BRD3-BD2 ([5]; BromoKdELECT): 5920 fold
IC50 [6]: 0.29 nM
IC50 ([10]; AlphaScreen): 2.1 nM
fold more potent than (+)-JQ1 for BRDT-BD1 ([10]; AlphaScreen): 22 fold
BRDT-BD1 vs. BRDT-BD2 fold [10]: ~5000 fold
effect against BRDT-BD2 in NanoBRET (in words) [11]: no effect
effect against BRD4-BD2 in NanoBRET (in words) [12]: no effect
metabolic stability in mouse liver microsomes (in words) [13]: labile
SMILES: CNC(=O)[C@@H](CC1CCN(C(=O)Cc2ccc3[nH]c(=O)cc(C)c3c2)CC1)NC(=O)c1ccc(-c2ccc(C)cc2C)cn1 [Compound 2, (R)-5-(2,4-dimethylphenyl)-N-(3-(1-(2-(4-methyl-2-oxo-1,2-dihydroquinolin-6-yl)acetyl)piperidin-4-yl)-1-(methylamino)-1-oxopropan-2-yl)picolinamide]
MYC expression (in words) [1]: suppressed
effects on GAPDH expression (in words) [1]: no/minimal effects
apoptosis, Annexin V+ cells (in words) [7]: induced
effect on the cell cycle (in words) [8]: induced Gi arrest
inhibition of tracer binding, BD1 vs BD2 (in words) [9]: more potent and selective for NanoLuc-BET BD1

EC50 [14]: 143 nM
IC50 [15]: 16700 nM
IC50 ([16]; AlphaScreen): 7.1 nM
fold loss of selectivity over BRD4-BD2 ([16]; AlphaScreen): 1.6 fold
BRD4-BD1 vs. BRD4-BD2 fold ([16]; BD1 selectivity, AlphaScreen IC50 ratio): 2,352 fold
IC50 ([10]; AlphaScreen): 5.4 nM
BRDT-BD1 vs. BRDT-BD2 fold [10]: 3,875 fold
IC50 [17]: 20900 nM
SMILES: CNC(=O)[C@@H](CC1CCN(C(=O)Cc2ccc3[nH]c(=O)ccc3c2)CC1)NC(=O)c1ccc(-c2ccccc2)cn1 [Compound 10, (R)-N-(1-(methylamino)-1-oxo-3-(1-(2-(2-oxo-1,2-dihydroquinolin-6-yl)acetyl)piperidin-4-yl)propan-2-yl)-5-phenylpicolinamide]

— US20250304550A1, “BROMODOMAIN AND EXTRA-TERMINAL (BET) SUBFAMILY BROMODOMAIN 1 (BD1) SELECTIVE INHIBITORS AND METHODS USING SAME” (Baylor College of Medicine, priority 2022, published 2025)
